Read-outs that look alike come from different tables or passages of the source.
Legend:
AhR [1] = target: T1, AhR (Mus musculus, UniProt P30561); conditions: read-out: EC50 AhR (hepatoma cell line); Table 4; EGFP at 24 hours
T1 sequence (P30561 1-848): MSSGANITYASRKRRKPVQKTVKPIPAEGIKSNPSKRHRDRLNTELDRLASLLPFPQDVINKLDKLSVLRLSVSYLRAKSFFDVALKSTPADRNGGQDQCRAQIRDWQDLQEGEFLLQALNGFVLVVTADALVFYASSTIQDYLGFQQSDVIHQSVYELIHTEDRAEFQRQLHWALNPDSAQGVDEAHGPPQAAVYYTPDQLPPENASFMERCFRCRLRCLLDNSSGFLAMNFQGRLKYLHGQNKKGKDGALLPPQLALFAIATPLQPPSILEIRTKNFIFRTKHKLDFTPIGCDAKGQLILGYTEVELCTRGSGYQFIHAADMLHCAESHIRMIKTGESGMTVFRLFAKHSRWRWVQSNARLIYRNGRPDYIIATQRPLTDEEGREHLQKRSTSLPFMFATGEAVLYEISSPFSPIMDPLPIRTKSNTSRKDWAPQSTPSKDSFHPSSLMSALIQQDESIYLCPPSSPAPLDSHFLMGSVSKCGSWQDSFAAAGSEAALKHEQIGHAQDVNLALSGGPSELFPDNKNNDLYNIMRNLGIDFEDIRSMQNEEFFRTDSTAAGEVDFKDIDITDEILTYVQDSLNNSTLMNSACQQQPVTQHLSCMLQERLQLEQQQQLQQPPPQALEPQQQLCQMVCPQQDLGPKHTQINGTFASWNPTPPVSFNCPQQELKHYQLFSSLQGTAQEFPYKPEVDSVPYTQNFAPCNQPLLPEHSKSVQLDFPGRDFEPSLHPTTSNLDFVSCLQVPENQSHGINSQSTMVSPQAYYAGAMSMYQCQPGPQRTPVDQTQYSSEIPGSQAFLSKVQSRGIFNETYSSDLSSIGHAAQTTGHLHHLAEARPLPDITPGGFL

AhR [2] = target: T2, AhR (Homo sapiens, UniProt P35869)
CDK1/cyclin B = CDK1/cyclin B kinase assay (histone H1, 15 μM ATP); type: biochemical, starfish (Marthasterias glacialis)
AhR [3] = experiment: AhR nuclear translocation in Hepa-1 and ARNT mutant cells (immunofluorescence); type: cell-based, mouse; conditions: 25 μM, 90 min, Hepa-1 wild-type and ARNT mutant cells
CDK5/p25 = CDK5/p25 (Homo sapiens, UniProt Q00535); experiment: CDK5/p25 kinase assay (histone H1, 15 μM ATP); type: biochemical, mammalian; conditions: read-out: IC50 CDK5/p25
GSK-3α/β = GSK-3α/β kinase assay (GS-1 peptide, 15 μM ATP); type: biochemical, porcine
[4] = Solubility (qualitative remark); conditions: relative to parent indirubins / 3′-oximes
CDK5/p35 = CDK5/p35 (Homo sapiens, UniProt Q00535); parameters: made in house; conditions: Hoessel et al. (1999); cited from earlier work
[5] = test system: p27^KIP1 in 5L (AhR +/+) cells; experiment: p27KIP1 expression by Western blotting, 5L cells; type: cell-based, mouse; conditions: 10 μM indirubins or 0.1 μM TCDD, 24 hr
GSK-3 [6] = experiment: β-catenin stabilization in AhR- or ARNT-deficient Hepa cell lines (Western blot); conditions: 10 μM BIO, 50 μM MeBIO, 24 hrs
GSK-3 [7] = experiment: β-catenin phosphorylation on GSK-3 specific sites in COS-1 cells (Western blot); conditions: 5 μM indirubins or 20 mM LiCl, 24 hrs
[8] = test system: 5L (AhR +/+) hepatoma cells; experiment: Cell viability MTT assay, 5L cells; type: cell-based, mouse; conditions: range of concentrations, 24 and 48 hr
Xenopus laevis embryos = experiment: Maternal Wnt pathway activation in Xenopus laevis embryos (phenotype, RT-PCR of animal caps); type: in vivo; conditions: for embryo phenotype (anteriorization): BIO 5-50 μM, MeBIO 50 μM, LiCl 0.3 M, treated before stage 8, tadpole stage
Description: Xenopus laevis embryos obtained by in vitro fertilization were cultured in 0.1×MMR and staged (Nieuwkoop & Faber (1967) Normal table of Xenopus Laevis (North Holland Publishing Co, Amsterdam, The Netherlands)). […] For experiments with BIO, the reagent was added to the indicated final concentrations at the 4 cell stage and washed away at stage 8. Embryos were subsequently allowed to develop to tadpole stage. RNA injections were performed at 2-4 cell stage with the indicated amounts of in vitro transcribed RNA in a […] volume. Animal caps were dissected at blastula (stage 9) and cultured to neurula (stage 18) for RT-PCR analysis-. The RNA expression vectors were pCS2+DN Xtcf-3, encoding amino acids 88-553 of Xtcf-3 (Vonica et al. (2000) Dev. Biol. 217: 230-243), MTPA2 (Zeng et al. […] RT-PCR was performed as previously described (Chang et al. (1997) Development 124: 827-837), with the following oligonucleotides: for ODC sense [NT] and antisense 5° [NT] 3'; for nrp1 sense [NT] and antisense [NT]; for XAG1 sense [NT] and antisense 5° [NT] 3'; for en2 sense 5° [NT] 3' and antisense [NT]; for Xhoxb9 sense [NT] and antisense [NT]; for chordin sense 5° [NT] 3' and antisense [NT]. Phenotypes of embryos treated with BIO or LiCl were compared (FIG. 8B-G). […] The Wnt pathway can ectopically induce dorsal genes, like the direct Wnt target siamois ([…] et al. (1996) Development 122: 3055-3065), and the Spemann organizer marker and siamois target chordin (Kessler (1997) Proc. Natl. Acad. Sci. U.S.A. 94: 13017-22). […] Another outcome of ectopic Wnt pathway activation in Xenopus is the indirect induction of neural tissue in animal cap explants (Baker et al. (1999) Genes Dev. 13: 3149-3159). Explants from embryos treated with LiCl (FIG. 8I, lanes 4, 5), BIO (lanes 6, 7), or injected with RNA for the neuralizing factor noggin (lane 3), were compared by RT-PCR for various neural and anterior markers.

[9] = test system: BP8 (AhR −/−) hepatoma cells; experiment: Cell viability MTT assay, BP8 cells; type: cell-based, mouse; conditions: range of concentrations, 24 and 48 hr
[10] = test system: 5L (AhR +/+) hepatoma cells; experiment: FACS cell cycle analysis, 5L cells; type: cell-based, mouse; conditions: 10 μM indirubins or 100 nM TCDD, 24 hr
[11] = test system: BP8 (AhR −/−) hepatoma cells; experiment: FACS cell cycle analysis, BP8 cells; type: cell-based, mouse; conditions: 10 μM indirubins or 100 nM TCDD, 24 hr
Description: Flow cytometry analysis (Coulter EPIX XL2, Beckman, Calif., USA) of cellular DNA content was performed on ethanol-fixed cell suspensions after ribonuclease A III treatment (Sigma) and propidium iodide (Sigma) staining, as previously described (French et al. (1985) Cytometry 6: 47-53). Percentages of cells in G0/G1, S and G2/M phases of cell cycle were then calculated on the basis of DNA distribution histograms provided by the software manufacturer.
Both 5L and BP8 cell lines were treated with 10 μM IO, MeIO, BIO, MeBIO or 100 nM TCDD for 24 hr.

[12] = test system: GSK-3α (Tyr276) / GSK-3β (Tyr216); experiment: Tyrosine phosphorylation of GSK-3 in SH-SY5Y cells (Western blot); type: cell-based, human; conditions: 1 μM, 12 hr
Description: GSK-3α and GSK-3β activity is enhanced by the phosphorylation of a specific tyrosine residue (Tyr276 and Tyr216, respectively) (Hughes et al. (1993) EMBO J. 12: 803-808; Dajani et al. (2003) EMBO J. 22: 494-501). The tyrosine kinase responsible for this phosphorylation in mammals is unknown, but there is some evidence that it indirectly depends on GSK-3 activity (Bhat et al. (2000) Proc. Natl. Acad. Sci. U.S.A. 97: 11074-11079; Shaw et al. (1997) FEBS Lett. 416: 307-311). […] SH-SY5Y cells were exposed to IO, MeIO, BIO and MeBIO for 12 hr and the phosphorylation of Tyr276 (GSK-3α) and Tyr216 (GSK-3β) was estimated by Western blotting with phospho-specific antibodies. […] This was accompanied by an increased level in total GSK-3β, total β-catenin, and dephospho-&catenin.

AhR [13] = target: T2, AhR; experiment: Yeast AhR reporter assay (β-galactosidase)
[14] = Table 4, read-out: IC50 CDK1/cycin B
[15] = Table 1, read-out: IC50 GSK-3 α/β
[16] = Table 5, read-out: IC50 GSK-3α/β
[17] = Table 7, GSK-3, read-out: IC50exp
[18] = Table 5, read-out: IC50 CDK1/cyclin B

CDK5/p25, sequence (Q00535 whole entry, species assumed): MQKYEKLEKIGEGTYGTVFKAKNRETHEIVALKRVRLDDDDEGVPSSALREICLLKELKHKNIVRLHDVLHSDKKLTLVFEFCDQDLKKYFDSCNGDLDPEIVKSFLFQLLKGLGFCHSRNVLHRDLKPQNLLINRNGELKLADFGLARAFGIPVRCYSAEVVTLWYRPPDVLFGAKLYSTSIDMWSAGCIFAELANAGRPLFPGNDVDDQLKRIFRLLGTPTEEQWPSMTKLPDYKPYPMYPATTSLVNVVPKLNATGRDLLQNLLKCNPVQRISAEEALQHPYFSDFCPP
CDK5/p25, sequence (Q15078 99-307 partner limits assumed, species assumed): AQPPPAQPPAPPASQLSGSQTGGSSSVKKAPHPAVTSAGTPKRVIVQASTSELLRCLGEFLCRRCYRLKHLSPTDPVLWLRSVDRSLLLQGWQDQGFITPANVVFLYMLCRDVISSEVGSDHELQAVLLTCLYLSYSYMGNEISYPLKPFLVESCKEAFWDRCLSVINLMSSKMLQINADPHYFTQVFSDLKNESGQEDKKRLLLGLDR
T2 sequence (P35869 11-848): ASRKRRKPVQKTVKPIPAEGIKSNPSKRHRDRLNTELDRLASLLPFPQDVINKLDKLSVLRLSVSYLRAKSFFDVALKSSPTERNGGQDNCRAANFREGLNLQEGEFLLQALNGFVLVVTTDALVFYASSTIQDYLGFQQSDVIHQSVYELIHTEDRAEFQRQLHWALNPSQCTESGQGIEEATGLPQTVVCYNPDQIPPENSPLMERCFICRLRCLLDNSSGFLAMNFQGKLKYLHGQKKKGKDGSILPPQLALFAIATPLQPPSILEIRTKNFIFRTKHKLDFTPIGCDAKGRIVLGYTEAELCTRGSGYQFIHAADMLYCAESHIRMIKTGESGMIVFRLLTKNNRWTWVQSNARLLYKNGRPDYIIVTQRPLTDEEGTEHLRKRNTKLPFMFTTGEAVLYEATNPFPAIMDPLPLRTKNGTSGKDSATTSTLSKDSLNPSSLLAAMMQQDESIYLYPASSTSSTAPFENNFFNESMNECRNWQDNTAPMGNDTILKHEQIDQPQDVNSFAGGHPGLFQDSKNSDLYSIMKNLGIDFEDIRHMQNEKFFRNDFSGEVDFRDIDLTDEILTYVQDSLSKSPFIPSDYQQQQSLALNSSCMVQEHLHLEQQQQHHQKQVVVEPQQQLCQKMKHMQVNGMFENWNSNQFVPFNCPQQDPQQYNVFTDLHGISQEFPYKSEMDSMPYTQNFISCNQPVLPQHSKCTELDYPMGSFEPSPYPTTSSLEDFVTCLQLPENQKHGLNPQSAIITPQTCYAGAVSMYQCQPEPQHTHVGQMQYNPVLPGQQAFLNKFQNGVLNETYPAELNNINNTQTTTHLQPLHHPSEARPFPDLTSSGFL
T2 sequence (P27540 whole entry partner): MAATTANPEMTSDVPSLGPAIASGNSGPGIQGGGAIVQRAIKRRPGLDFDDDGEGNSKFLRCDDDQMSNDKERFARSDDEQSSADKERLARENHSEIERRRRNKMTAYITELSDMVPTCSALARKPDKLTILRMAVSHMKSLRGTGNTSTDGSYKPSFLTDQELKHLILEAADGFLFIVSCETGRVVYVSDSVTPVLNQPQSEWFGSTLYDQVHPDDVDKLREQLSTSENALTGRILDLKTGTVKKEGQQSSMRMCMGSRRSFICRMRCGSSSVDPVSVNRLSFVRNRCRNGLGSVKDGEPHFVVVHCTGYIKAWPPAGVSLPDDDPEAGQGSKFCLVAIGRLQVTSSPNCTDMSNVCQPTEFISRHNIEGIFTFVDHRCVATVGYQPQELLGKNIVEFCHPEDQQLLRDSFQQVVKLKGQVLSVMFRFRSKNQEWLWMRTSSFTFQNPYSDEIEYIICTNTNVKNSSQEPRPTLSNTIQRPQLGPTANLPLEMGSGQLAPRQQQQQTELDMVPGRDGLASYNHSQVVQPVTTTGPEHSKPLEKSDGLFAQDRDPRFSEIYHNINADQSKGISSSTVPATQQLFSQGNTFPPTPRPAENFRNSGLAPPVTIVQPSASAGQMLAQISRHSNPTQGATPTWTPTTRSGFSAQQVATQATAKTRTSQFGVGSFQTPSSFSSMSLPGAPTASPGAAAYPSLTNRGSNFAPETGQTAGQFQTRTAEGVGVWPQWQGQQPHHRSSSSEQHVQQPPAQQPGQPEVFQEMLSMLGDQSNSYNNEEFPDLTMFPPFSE
CDK5/p35, sequence (Q00535 whole entry, species assumed): as the sequence (Q00535 whole entry, species assumed) above
CDK5/p35, sequence (Q15078 whole entry partner, species assumed): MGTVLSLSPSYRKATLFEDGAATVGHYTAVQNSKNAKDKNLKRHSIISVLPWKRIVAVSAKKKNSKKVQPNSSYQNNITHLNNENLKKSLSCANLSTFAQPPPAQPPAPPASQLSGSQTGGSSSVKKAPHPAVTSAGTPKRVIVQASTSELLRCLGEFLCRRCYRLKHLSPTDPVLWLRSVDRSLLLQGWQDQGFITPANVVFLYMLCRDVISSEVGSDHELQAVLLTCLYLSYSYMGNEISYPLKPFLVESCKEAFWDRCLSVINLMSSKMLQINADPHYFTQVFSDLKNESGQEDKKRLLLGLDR

O=C1Nc2ccc(I)cc2/C1=C1/Nc2ccccc2/C1=N\O [compound 19, 5-iodo-indirubin-3′-oxime, reference compound]
EC50 (AhR [1]): 5 nM | EC50 (AhR [2]): 50 nM | IC50 (CDK1/cyclin B; [14]): 25 nM | nuclear translocation of AhR (AhR [3]): triggered ARNT-independent nuclear redistribution of AhR

O=C1Nc2cc(Br)ccc2C1=C1Nc2cc(Br)ccc2C1=NO [13b, 6,6′-dibromo-indirubin-3′-oxime]
IC50 (CDK5/p25; Table 1): 1300 nM | IC50 (CDK5/p25; Table 5): 1300 nM | IC50 (GSK-3α/β; [15]): 120 nM | IC50 (GSK-3α/β; [16]): 120 nM | IC50 (GSK-3α/β; [17]): 120 nM | solubility (in words) [4]: increased solubility | IC50 (CDK1/cyclin B; Table 1, read-out: IC50 CDK1/cyclin B): 17000 nM | IC50 (CDK1/cyclin B; [18]): 17000 nM

Cc1ccc2c(c1)/C(=C1/Nc3ccccc3C1=O)C(=O)N2 [compound 15, 5-methyl-indirubin, reference compound]
EC50 (AhR [1]): 25 nM | IC50 (GSK-3α/β; Table 4, read-out: IC50 GSK-3): 62 nM | IC50 (GSK-3α/β; [17]): 62 nM | EC50 (AhR [2]): 40 nM | IC50 (CDK1/cyclin B; read-out: IC50 CDK1/cycin B): 280 nM

O=C1Nc2ccc(S(=O)(=O)O)cc2/C1=C1/Nc2ccccc2C1=O [I5S, indirubin-5-sulphonate]
IC50 (CDK5/p35): 60 nM

CN1C(=O)C(=C2Nc3ccccc3C2=NO)c2ccc(Br)cc21 [13c, 6-Bromo-1-methylindirubin-3′-oxime]
p27^KIP1 expression in 5L cells [5]: very effective p27^KIP1 inducers | β-catenin stabilization (GSK-3 [6]): inactive | EC50 (AhR [1]): 93 nM | unphosphorylated β-catenin level (GSK-3 [7]): neither the kinase-inactive MeBIO nor IO, led to a major increase | IC50 (CDK5/p25; Table 1): > 100000 nM | IC50 (CDK5/p25; Table 5): > 100000 nM | IC50 (GSK-3α/β; [15]): 44000 nM | IC50 (GSK-3α/β; Table 4, read-out: IC50 GSK-3): 44000 nM | IC50 (GSK-3α/β; [16]): > 100000 nM | survival of 5L cells (MTT) [8]: apparently not affected | embryo phenotype (anteriorization) (Xenopus laevis embryos): remains without effect | survival of BP8 cells (MTT) [9]: apparently not affected | accumulation of 5L cells in G1 phase [10]: very striking accumulation | accumulation of BP8 cells in G1 phase [11]: but not of AhR −/− cells (BP8) | EC50 (AhR [2]): 20 nM | IC50 (CDK1/cyclin B; [14]): 92000 nM | IC50 (CDK1/cyclin B; [18]): 92000 nM | nuclear translocation of AhR (AhR [3]): caused redistribution of AhR to the nucleus | level of tyrosine phosphorylation of both GSK-3 isoforms [12]: None of these changes were observed

O=C1Nc2ccc(Br)cc2/C1=C1/Nc2ccccc2C1=O [compound 16, 5-bromo-indirubin, reference compound]
EC50 (AhR [1]): 7 nM | IC50 (GSK-3α/β; Table 4, read-out: IC50 GSK-3): 55 nM | IC50 (GSK-3α/β; [17]): 55 nM | EC50 (AhR [2]): 35 nM | IC50 (CDK1/cyclin B; [14]): 230 nM

Clc1cc2c(cc1Cl)Oc1cc(Cl)c(Cl)cc1O2 [compound 25, 2,3,7,8-tetrachlorodibenzo-p-dioxin, reference compound]
p27^KIP1 expression in 5L cells [5]: up-regulates the expression of both CYP1A1 and p27^KIP1 in the 5L | EC50 (AhR [1]): 0.015 nM | IC50 (GSK-3α/β; Table 4, read-out: IC50 GSK-3): > 15000 nM | accumulation of 5L cells in G1 phase [10]: triggered an AhR-dependent arrest in G1 | IC50 (CDK1/cyclin B; [14]): > 15000 nM | EC50 (AhR [13]): 25 nM

O=C1Nc2cc(Br)ccc2/C1=C1/Nc2ccccc2/C1=N\O [7a]
p27^KIP1 expression in 5L cells [5]: modest, but detectable increase | β-catenin stabilization (GSK-3 [6]): triggered a robust β-catenin stabilization in both cell lines | unphosphorylated β-catenin level (GSK-3 [7]): major increase | survival of 5L cells (MTT) [8]: equally sensitive to IO and BIO | embryo phenotype (anteriorization) (Xenopus laevis embryos): phenocopies the LiCl effect in a dose-dependent manner | induction of siamois and chordin in animal cap explants (RT-PCR) (Xenopus laevis embryos; Li+ 0.3 M, BIO 50 μM): shows induction of both genes | effect on anterior markers otx2 and xag1 in animal cap explants (RT-PCR) (Xenopus laevis embryos; even at the lowest concentration tested (5 μM)): strongest effect on anterior markers | survival of BP8 cells (MTT) [9]: equally sensitive to IO and BIO | accumulation of 5L cells in G1 phase [10]: modest (but detectable) | solubility (in words) [4]: increased solubility | nuclear translocation of AhR (AhR [3]): triggered ARNT-independent nuclear redistribution of AhR | level of tyrosine phosphorylation of both GSK-3 isoforms [12]: dramatically reduced
